Data on 38 compounds can be found in patent US8685974B2 (Bayer CropScience AG, priority 2009, dated 2014).

Each structure is given as a SMILES string. Like-named read-outs stand apart in the source and are kept apart here. Marks after values point to notes of the source that are not given here.

One series relates to Alternaria solani. As to the kind of experiment: Alternaria test (tomato) / protective. To be noted: 500 ppm active compound, protective spray, evaluated 7 days after inoculation. Type of series: in vivo. How it is done:
Alternaria Test (Tomato)/Protective
Solvent: 49 parts by weight of N,N-dimethylformamide
Emulsifier: 1 part by weight of alkylaryl polyglycol ether
To produce a suitable preparation of active compound, 1 part by weight of active compound is mixed with the stated amounts of solvent and emulsifier, and the concentrate is diluted with water to the desired concentration.
To test for protective activity, young tomato plants are sprayed with the preparation of active compound at the stated application rate. […] The plants then remain at 96% rel. atmospheric humidity and a temperature of 20° C.
Evaluation is carried out 7 days after the inoculation. 0% means an efficacy which corresponds to that of the control, whereas an efficacy of 100% means that no infection is observed.

A further series concerns Pyrenophora teres. Kind of series: In vivo test on Pyrenophora teres (barley net blotch). The following applies: dose of 500 ppm; barley plants; grading 12 days after contamination. How it is done: In Vivo Test on Pyrenophora teres (Barley Net Blotch)
The active ingredients tested are prepared by homogenization in a mixture of acetone/Tween/DMSO, then diluted with water to obtain the desired active material concentration.
Barley plants (Plaisant variety), sown on a 50/50 peat soil-pozzolana substrate in starter cups and grown at 12° C., are treated at the 1-leaf stage (10 cm tall) by spraying with the active ingredient prepared as described above.
Plants, used as controls, are treated with an aqueous solution not containing the active material.
After 24 hours, the plants are contaminated by spraying them with an aqueous suspension of Pyrenophora teres spores (12,000 spores per ml). The spores are collected from a 12-day-old culture. The contaminated barley plants are incubated for 24 hours at about 20° C. and at 100% relative humidity, and then for 12 days at 80% relative humidity.
Grading is carried out 12 days after the contamination, in comparison with the control plants.

A further series has as its system Fusarium graminearum. Type of series: cell-based. The following applies: 50 μM; for % Inhibition of DON/AcDON at 50 μM: 7 days at 28° C.

As for `CC(C)n1cc(-c2ccnc(NC3CC3)n2)c(-c2ccc(Cl)s2)n1` [Example 177], the efficacy with Alternaria solani came to 90%. Besides, the log p (pH 2.3) was 2.59^[a]. The same compound registered a protection with Pyrenophora teres of 95%.
For `CCC(C)n1cc(-c2ccnc(NC(C)COC)n2)c(-c2ccc(Cl)s2)n1` (centres unmarked) [Example 186], the log p (pH 2.3) was 3.21^[a]. Besides, the protection in the series with Pyrenophora teres stood at 70%.
For `CCC(C)n1cc(-c2ccnc(NCC3CC3)n2)c(-c2ccc(Cl)s2)n1` (centres unmarked) [Example 187] the same measures were 3.41^[a] and 70%.
For the compound `C#CCNc1nccc(-c2cn(C(C)CC)nc2-c2ccc(Cl)s2)n1` (centres unmarked) [Example 188], the log p (pH 2.3) is 3.68^[a]. The same compound gave a protection with Pyrenophora teres of 78%.
As for `CCC(C)n1cc(-c2ccnc(N)n2)c(-c2ccc(Cl)s2)n1` (centres unmarked) [Example 193], the log p (pH 2.3) was 2.3^[a]. Moreover, the protection with Pyrenophora teres is reported as 95%.
`CCC(C)n1cc(-c2ccnc(NC3COC3)n2)c(-c2ccc(Cl)s2)n1` (centres unmarked) [Example 194] displayed an efficacy in the series on Alternaria solani of 95%. For the setting “pH 2.3”, the log p was 3.09^[a]. The same compound gave a protection in the series with Pyrenophora teres of 100%. Also, in the series on Fusarium graminearum, the “% Inhibition of fungal growth at 50 μM” value stood at 90% and the “% Inhibition of DON/AcDON at 50 μM” value was found to be 99%.
As for `CCC(C)n1cc(-c2ccnc(NC3CC3)n2)c(-c2ccc(Cl)s2)n1` (centres unmarked) [Example 195], the log p (pH 2.3) is 2.9^[a]. For the same compound, the protection with Pyrenophora teres is 95%. In the series with Fusarium graminearum, the “% Inhibition of fungal growth at 50 μM” value turned out to be 94% and the “% Inhibition of DON/AcDON at 50 μM” value amounted to 99%.
In turn, `Cc1ccc(-c2nn(C(C)C)cc2-c2ccncc2)s1` [Example 199] displayed an efficacy in the series with Alternaria solani of 89%. Further, where the note is “pH 2.7”, the log p was 1.5^[b]. In the series on Pyrenophora teres, this compound returned a protection of 95%. Moreover, in the series on Fusarium graminearum, the “% Inhibition of fungal growth at 50 μM” value was 100% and the “% Inhibition of DON/AcDON at 50 μM” value was determined as 99%.
Taken in the same sequence, the figures for `CCC(C)n1cc(-c2ccnc(NC(=O)[C@H](C)O)c2)c(-c2ccc(Cl)s2)n1` (some centres unmarked) [Example 204] were 80%, 3.13^[b], 80%, 56% and 95%.
Regarding `CC(C)n1cc(-c2ccnc(NC(=O)[C@H](C)O)c2)c(-c2ccc(Cl)s2)n1` [Example 205], the efficacy with Alternaria solani is 90%. In addition, the log p (pH 2.7) was 2.75^[b]. In the series on Pyrenophora teres, this compound registered a protection of 95%. In the series with Fusarium graminearum, the “% Inhibition of fungal growth at 50 μM” value was found to be 84% and the “% Inhibition of DON/AcDON at 50 μM” value was 98%.
For the compound `CCn1cc(-c2ccnc(NC(=O)[C@H](C)O)c2)c(-c2ccc(Cl)s2)n1` [Example 206], the efficacy in the series with Alternaria solani is on record as 80%. For the same compound, the log p (pH 2.7) is 2.37^[b]. Besides, in the series on Pyrenophora teres, the protection is recorded as 90%.
With `C[C@H](O)C(=O)Nc1cc(-c2cn(C)nc2-c2ccc(Cl)s2)ccn1` [Example 207], the log p (pH 2.7) was 2.11^[b]. In addition, in the series on Pyrenophora teres, the protection amounted to 70%.
Consider `Cn1cc(-c2ccnc(NC(=O)C(C)(C)O)c2)c(-c2ccc(Cl)s2)n1` [Example 208], for which the log p (pH 2.7) is 2.26^[b]. Further, in the series on Pyrenophora teres, the protection turned out to be 80%.
The compound `CCC(C)n1cc(-c2ccnc(NC(=O)C(C)(C)O)c2)c(-c2ccc(Cl)s2)n1` (centres unmarked) [Example 210] yielded an efficacy in the series with Alternaria solani of 90%. Further, the log p (pH 2.7) is 4.24^[b]. The protection with Pyrenophora teres amounted to 70%.
For `CC(C)n1cc(-c2ccnc(NC(=O)C(C)(C)O)c2)c(-c2ccc(Cl)s2)n1` [Example 211] the same measures were 90%, 3.17^[b] and 95%.
Taken in the same sequence, the figures for `CCn1cc(-c2ccnc(NC(=O)C(C)(C)O)c2)c(-c2ccc(Cl)s2)n1` [Example 212] were 70%, 2.73^[b] and 80%.
For `CCC(C)n1nc(-c2ccc(Cl)s2)c(-c2ccncc2)c1F` (centres unmarked) [Example 213] the same measures were 80%, 2.61^[b] and 70%.
Turning to `CCC(C)n1cc(-c2ccnc(NC(=O)COC)c2)c(-c2ccc(Cl)s2)n1` (centres unmarked) [Example 223], the efficacy with Alternaria solani worked out at 95%. In addition, the log p (pH 2.7) is 3.68^[b]. In the series on Pyrenophora teres, this compound displayed a protection of 95%. Besides, in the series with Fusarium graminearum, the “% Inhibition of fungal growth at 50 μM” value came out at 79% and the “% Inhibition of DON/AcDON at 50 μM” value was determined as 99%.
In the series on Alternaria solani, `CCC(C)n1cc(-c2ccnc(NC(=O)Cc3ccccc3)c2)c(-c2ccc(Cl)s2)n1` (centres unmarked) [Example 224] came in with an efficacy of 80%. Further, the log p (pH 2.7) was 4.35^[b]. The protection with Pyrenophora teres stood at 95%.
For the compound `CCC(C)n1cc(-c2ccnc(NC(=O)c3ccsc3)c2)c(-c2ccc(Cl)s2)n1` (centres unmarked) [Example 230], the log p (pH 2.7) was 4.21^[b]. The protection in the series with Pyrenophora teres was found to be 70%.
Take `CC(C)n1cc(-c2ccnc(NC(=O)c3ccsc3)c2)c(-c2ccc(Cl)s2)n1` [Example 232]: the efficacy with Alternaria solani was 80%. The log p (pH 2.7) was 3.79^[b]. In addition, the protection with Pyrenophora teres was 80%.
In turn, `CC(C)n1cc(-c2ccnc(NC(=O)C(C)(C)C)c2)c(-c2ccc(Cl)s2)n1` [Example 233] had an efficacy in the series on Alternaria solani of 90%. Also, the log p (pH 2.7) is 3.87^[b]. In the series on Pyrenophora teres, this compound gave a protection of 90%.
The compound `CCOC(=O)Nc1cc(-c2cn(C(C)CC)nc2-c2ccc(Cl)s2)ccn1` (centres unmarked) [Example 236] came in with an efficacy with Alternaria solani of 80%. The log p (pH 2.7) is 3.92^[b]. The protection in the series on Pyrenophora teres is recorded as 95%.
As to `CCC(C)n1cc(-c2ccnc(NC(=O)c3cccs3)c2)c(-c2ccc(Cl)s2)n1` (centres unmarked) [Example 238], the efficacy in the series on Alternaria solani stood at 70%. In addition, the log p (pH 2.7) is 4.37^[b]. Besides, the protection in the series on Pyrenophora teres is listed as 80%.
Regarding `CC(C)n1cc(-c2ccnc(NC(=O)c3cccs3)c2)c(-c2ccc(Cl)s2)n1` [Example 241], where the note is “pH 2.7”, the log p was 3.96^[b]. Moreover, the protection with Pyrenophora teres is on record as 80%.
In the series on Alternaria solani, `CC(C)OC(=O)Nc1cc(-c2cn(C(C)C)nc2-c2ccc(Cl)s2)ccn1` [Example 242] came in with an efficacy of 90%. Besides, the log p (pH 2.7) was 3.85^[b]. The compound further displayed a protection in the series with Pyrenophora teres of 70%.
Consider `CC(C)n1cc(-c2ccnc(NC(=O)Cc3ccccc3)c2)c(-c2ccc(Cl)s2)n1` [Example 245], for which the log p (pH 2.7) is 3.94^[b]. This compound also gave a protection with Pyrenophora teres of 100%.
In the series with Alternaria solani, `CCn1cc(-c2ccnc(NC(=O)c3ccsc3)c2)c(-c2ccc(Cl)s2)n1` [Example 254] gave an efficacy of 70%. Besides, where the note is “pH 2.7”, the log p was 3.29^[b]. Also, in the series with Pyrenophora teres, the protection amounted to 90%.
For `CCn1cc(-c2ccnc(NC(=O)C(C)(C)C)c2)c(-c2ccc(Cl)s2)n1` [Example 255] the same measures were 90%, 3.37^[b] and 100%.
For `CCOC(=O)Nc1cc(-c2cn(C(C)C)nc2-c2ccc(Cl)s2)ccn1` [Example 259] the same measures were 90%, 3.46^[b] and 80%.
For `CCn1cc(-c2ccnc(NC(=O)Cc3ccccc3)c2)c(-c2ccc(Cl)s2)n1` [Example 262] the same measures were 80%, 3.48^[b] and 90%.
For `CCOC(=O)Nc1cc(-c2cn(CC)nc2-c2ccc(Cl)s2)ccn1` [Example 265], the log p (pH 2.7) is 3^[b]. In the series with Pyrenophora teres, the protection was determined as 70%. In addition, in the series with Fusarium graminearum, the “% Inhibition of fungal growth at 50 μM” value stood at 23% and the “% Inhibition of DON/AcDON at 50 μM” value was 87%.
For `CCn1cc(-c2ccnc(NC(=O)c3cccs3)c2)c(-c2ccc(Cl)s2)n1` [Example 267] the same measures were 3.48^[b], 80%, 47% and 89%.
For `CCOC(=O)Nc1cc(-c2cn(C)nc2-c2ccc(Cl)s2)ccn1` [Example 271] the same measures were 2.56^[b], 90%, 20% and 94%.
With `Cn1cc(-c2ccnc(NC(=O)c3ccccc3)c2)c(-c2ccc(Cl)s2)n1` [Example 272], the log p (pH 2.7) is 3.09^[b]. The same compound came in with a protection in the series with Pyrenophora teres of 70%.
Take `CC(C)OC(=O)Nc1cc(-c2cn(C)nc2-c2ccc(Cl)s2)ccn1` [Example 274]: the efficacy with Alternaria solani amounted to 80%. Also, the log p (pH 2.7) was 2.9^[b]. In the series with Pyrenophora teres, this compound showed a protection of 80%.
For `Cn1cc(-c2ccnc(NC(=O)C3CCC3)c2)c(-c2ccc(Cl)s2)n1` [Example 275], where the note is “pH 2.7”, the log p is 2.52^[b]. In addition, the protection in the series on Pyrenophora teres worked out at 90%. Further, in the series on Fusarium graminearum, the “% Inhibition of fungal growth at 50 μM” value was 95% and the “% Inhibition of DON/AcDON at 50 μM” value is 99%.
`Cn1cc(-c2ccnc(NC(=O)c3ccsc3)c2)c(-c2ccc(Cl)s2)n1` [Example 282] yielded an efficacy with Alternaria solani of 80%. The log p (pH 2.7) was 2.88^[b]. Moreover, the protection with Pyrenophora teres came out at 70%.
